The structures appear in SMILES notation.

The data set concerns Blood. The experiment in a line: Drug level in Homo sapiens (human) whole blood assessed as retention time by UPLC-TOF-MS analysis.
Take `COc1ccc2c(c1OC)C(=O)O[C@@H]2[C@H]1c2c(cc3c(c2OC)OCO3)CCN1C` [NOSCAPINE]: the Retention_time is on record as 4.99 min.
Under `O=C1CN=C(c2ccccc2Cl)c2cc([N+](=O)[O-])ccc2N1` [CLONAZEPAM] stands 5.99 min; under `CCN(CC)CCN1C(=O)CN=C(c2ccccc2F)c2cc(Cl)ccc21` [FLURAZEPAM], 5.53 min.
As for `CC1Cc2ccccc2N1NC(=O)c1ccc(Cl)c(S(N)(=O)=O)c1` (centres undefined) [INDAPAMIDE], the figure is 5.79 min; as for `O=C(NCCN1CCOCC1)c1ccc(Cl)cc1` [MOCLOBEMIDE], 3.39 min.
As to `CCOC(=O)c1ncn2c1CN(C)C(=O)c1cc(F)ccc1-2` [FLUMAZENIL], the Retention_time is given as 5.13 min.
Under `CN1CC[C@@]23CCCC[C@@H]2[C@@H]1Cc1ccc(O)cc13` [DEXTRORPHAN] stands 3.82 min.
Under `COc1ccc2c3c1O[C@H]1[C@@H](O)C=C[C@H]4[C@@H](C2)N(C)CC[C@@]341` [CODEINE] stands 2.5 min; under `CN(C)CC/C=C1/c2ccccc2Sc2ccc(Cl)cc21` [CHLORPROTHIXENE], 6.18 min; under `CCC(=O)C(CC(C)N(C)C)(c1ccccc1)c1ccccc1` (centres undefined) [METHADONE], 6.03 min.
As for `CCCCNC(=O)NS(=O)(=O)c1ccc(C)cc1` [TOLBUTAMIDE], the figure is 6.16 min; as for `CN1CCN2c3ccccc3Cc3ccccc3C2C1` (centres undefined) [MIANSERIN], 5.48 min.
For the molecule `CCOc1ccccc1OC(c1ccccc1)C1CNCCO1` (centres undefined) [REBOXETINE], the Retention_time is reported as 5.6 min.
`O=C(NCC1CCCCN1)c1cc(OCC(F)(F)F)ccc1OCC(F)(F)F` (centres undefined) [FLECAINIDE]: the Retention_time amounted to 5.58 min.
As for `Clc1cccc(N2CCNCC2)c1` [CHLOROPHENYLPIPERAZINE], the figure is 4.08 min; as for `CN1CC[C@]23c4c5ccc(O)c4O[C@H]2C(=O)CC[C@@]3(O)[C@H]1C5` [OXYMORPHONE], 1.78 min.
As for `CN(C)c1nc(N)c(C(=O)NC(=N)N)nc1Cl`, the figure is 3.54 min; as for `Fc1ccc([C@@H]2CCNC[C@H]2COc2ccc3c(c2)OCO3)cc1` [PAROXETINE], 5.66 min; as for `CNCCCC1(c2ccc(F)cc2)OCc2cc(C#N)ccc21` (centres undefined), 5.47 min.
As for `CCOC(=O)c1ccc(N)cc1` [BENZOCAINE], the figure is 5.15 min; as for `Nc1ccc2c(c1)C(c1ccccc1)=NCC(=O)N2` [7-AMINO-NITRAZEPAM], 2.26 min; as for `CC(N)Cc1ccccc1` (centres undefined) [AMPHETAMINE], 2.6 min.
As for `O=C1CN=C(c2ccccc2)c2cc([N+](=O)[O-])ccc2N1` [NITRAZEPAM], the Retention_time came out at 5.8 min.
Take `Cc1cccc(C)c1NC(=O)C1CCCCN1C` (centres undefined) [MEPIVACAINE]: the Retention_time was found to be 3.46 min.
With `c1cc2c(c(N3CCNCC3)c1)OCCO2` [ELTOPRAZINE], the Retention_time turned out to be 4.9 min.
Under `COC(=O)C1=C(C)NC(C)=C(C(=O)OC)C1c1ccccc1[N+](=O)[O-]` [NIFEDIPINE] stands 6.4 min; under `COc1ccc2c(c1)[C@]13CCCC[C@@H]1[C@H](C2)N(C)CC3` [DEXTROMETHORPHAN], 5.38 min; under `COc1ccc(C(CN(C)C)C2(O)CCCCC2)cc1` (centres undefined) [VENLAFAXINE], 5.06 min.
With `O=C1CC2(CCCC2)CC(=O)N1CCCCN1CCN(c2ncccn2)CC1` [BUSPIRONE], the Retention_time is given as 5.14 min.
Consider `CN1CCN(C(c2ccccc2)c2ccccc2)CC1` [CYCLIZINE], for which the Retention_time is 5.52 min.
With `CC(C)(N)Cc1ccccc1` [PHENTERMINE], the Retention_time came out at 3.08 min.
Under `COc1ccc(CN(CCN(C)C)c2ccccn2)cc1` [PYRILAMINE] stands 4.57 min; under `O=C1Nc2ccc(Cl)cc2C(c2ccccc2Cl)=NC1O` (centres undefined) [LORAZEPAM], 6.02 min.
`COC(=O)C1=C(C)NC(C)=C(C(=O)OC(C)(C)CN(C)CCC(c2ccccc2)c2ccccc2)C1c1cccc([N+](=O)[O-])c1` (centres undefined) [LERCANIDIPINE]: the Retention_time amounted to 6.8 min.
As for `COc1ccc2c(c1)N(C[C@H](C)CN(C)C)c1ccccc1S2` [LEVOMEPROMAZINE], the figure is 5.98 min; as for `CCNCCN1C(=O)CN=C(c2ccccc2F)c2cc(Cl)ccc21`, 6.19 min.
Under `CCCc1nn(C)c2c(=O)[nH]c(-c3cc(S(=O)(=O)N4CCN(C)CC4)ccc3OCC)nc12` stands 5.54 min; under `CCCc1nc(C)c2c(=O)[nH]c(-c3cc(S(=O)(=O)N4CCN(CC)CC4)ccc3OCC)nn12`, 5.17 min; under `CCOC(=O)C1(c2ccccc2)CCN(CCC(C#N)(c2ccccc2)c2ccccc2)CC1` [DIPHENOXYLATE], 6.56 min.
As for `CN1CCN(C(=O)OC2c3nccnc3C(=O)N2c2ccc(Cl)cn2)CC1` (centres undefined) [ZOPICLONE], the figure is 3.88 min.
For the molecule `CN[C@@H](C)[C@H](O)c1ccccc1` [EPHEDRINE], the Retention_time is 2.28 min.
`CN(C)CCCN1c2ccccc2CCc2ccccc21` [IMIPRAMINE]: the Retention_time was found to be 5.81 min.
Under `OCCOCCN1CCN(C(c2ccccc2)c2ccc(Cl)cc2)CC1` (centres undefined) [HYDROXYZINE] stands 5.91 min.
On to `CNC(C)Cc1ccc(OC)cc1` (centres undefined), for which the Retention_time is given as 3.14 min.
Under `CC(C)NCC(O)c1ccc(NS(C)(=O)=O)cc1` (centres undefined) [SOTALOL] stands 2.02 min; under `COc1ccc([C@@H]2Sc3ccccc3N(CCN(C)C)C(=O)[C@@H]2OC(C)=O)cc1` [DILTIAZEM], 5.63 min.
Turning to `OCCOCCN1CCN(C2=Nc3ccccc3Sc3ccccc32)CC1` [QUETIAPINE], the Retention_time was 5.35 min.
For the molecule `Cc1nnc2n1-c1ccc(Cl)cc1C(c1ccccc1Cl)=NC2` [TRIAZOLAM], the Retention_time came out at 6.15 min.
In the case of `COc1cc2nc(N3CCN(C(=O)C4COc5ccccc5O4)CC3)nc(N)c2cc1OC` (centres undefined) [DOXAZOSIN], the Retention_time was 5.43 min.
Under `Nc1ccc2c(c1)C(c1ccccc1Cl)=NCC(=O)N2` [7-AMINOCLONAZEPAM] stands 3.39 min.
As for `Nc1nnc(-c2cccc(Cl)c2Cl)c(N)n1` [LAMOTRIGINE], the figure is 3.78 min; as for `COc1cccc(C2(O)CCCCC2CN(C)C)c1` (centres undefined) [TRAMADOL], 4.09 min; as for `Cc1nnc2n1-c1sc(Br)cc1C(c1ccccc1Cl)=NC2` [BROTIZOLAM], 6.27 min.
Under `Cc1ccc(/C(=C\CN2CCCC2)c2cccc(/C=C/C(=O)O)n2)cc1` [ACRIVASTINE] stands 5.64 min; under `C=CCN1CC[C@]23c4c5ccc(O)c4O[C@H]2C(=O)CC[C@@]3(O)[C@H]1C5` [NALOXONE], 2.46 min; under `Cc1ccccc1-n1c(C)nc2ccccc2c1=O` [METHAQUALONE], 6.02 min.
For the molecule `Cc1ccc(-c2nc3ccc(C)cn3c2CC(=O)N(C)C)cc1` [ZOLPIDEM], the Retention_time is recorded as 4.78 min.
Under `CN1CCN(C2=Nc3cc(Cl)ccc3Nc3ccccc32)CC1` [CLOZAPINE] stands 5.1 min; under `COc1ccc(CC(C)N)cc1` (centres undefined) [PARA-METHOXYAMPHETAMINE], 2.91 min.
In the case of `CCN(CC)C(C)C(=O)c1ccccc1` (centres undefined) [DIETHYLPROPION], the Retention_time is given as 3.05 min.
For the molecule `C[C@@H](Cc1ccccc1)N(C)Cc1ccccc1` [BENZPHETAMINE], the Retention_time came out at 5.24 min.
Turning to `O=C1NCCN1CCN1CCC(c2cn(-c3ccc(F)cc3)c3ccc(Cl)cc23)CC1` [SERTINDOLE], the Retention_time came to 6.3 min.
With `OC(CCN1CCCC1)(c1ccccc1)C1CCCCC1` (centres undefined) [PROCYCLIDINE], the Retention_time is on record as 5.78 min.
With `CN1CC[C@]23CCCC[C@H]2[C@H]1Cc1ccc(O)cc13` [LEVORPHANOL], the Retention_time was 3.82 min.
Under `Fc1ccccc1C1=NCC(=S)N(CC(F)(F)F)c2ccc(Cl)cc21` [QUAZEPAM] stands 7.59 min.
As for `NCCC(Oc1ccc(C(F)(F)F)cc1)c1ccccc1` (centres undefined) [NORFLUOXETINE], the figure is 6 min.
Regarding `Cc1nnc2n1-c1ccc(Cl)cc1C(c1ccccc1)=NC2` [ALPRAZOLAM], the Retention_time is given as 6.09 min.
Under `CNCCC(Oc1ccc(C(F)(F)F)cc1)c1ccccc1` (centres undefined) [FLUOXETINE] stands 6.08 min; under `CN1CCN2c3ncccc3Cc3ccccc3C2C1` (centres undefined) [MIRTAZAPINE], 3.91 min.
As for `O=C1CN=C(c2ccccc2Cl)c2cc(Br)ccc2N1` [PHENAZEPAM], the figure is 6.45 min; as for `O=C1CCc2ccc(OCCCCN3CCN(c4cccc(Cl)c4Cl)CC3)cc2N1` [ARIPIPRAZOLE], 5.9 min.
As for `C[C@H](N)C(=O)c1ccccc1` [CATHINONE], the figure is 2.09 min; as for `Clc1cccc(Cl)c1N=C1NCCN1` [CLONIDINE], 2.44 min.
Take `CNCCC=C1c2ccccc2CCc2ccccc21` [NORTRIPTYLINE]: the Retention_time is given as 5.92 min.
